Test results taken from patent publication US8030443B2, “Squamous cell carcinoma antigen-derived peptide binding to HLA-A24 molecule” (Kurume University, priority 2005, dated 2011).

System: peptide-specific IgG in sera of cancer patients and healthy donors
Test: Measurement of anti-peptide IgG in plasma by LUMINEX multiplexed flow cytometric assay
Format: binding, human
Description: The levels of anti-peptide immunoglobulin G (IgG) were measured by the LUMINEX™ system (multiplexed flow cytometric assay) as previously reported (Komatsu N, Shichijo S, Nakagawa M, Itoh K. New multiplexed flow cytometric assay to measure anti-peptide antibody: a novel tool for monitoring immune responses to peptides used for immunization. Scand J Clin Lab Invest 2004; 64:1-11). In brief, plasma was incubated with 25 μl of peptide-coupled color-coded beads for 2 hr at room temperature on a plate shaker. After incubation, the mixture was washed with a vacuum manifold apparatus and incubated with 100 μl of biotinylated goat anti-human IgG (γ chain-specific)(BA-3080, Vector Laboratories, Burlingame, Calif., USA) for 1 h at room temperature. The plate was then washed, followed by the addition of 100 μl of streptavidin-PE (S-866, Molecular Probes, Eugene, Oreg., USA) into wells, and was incubated for 30 min at room temperature on a plate shaker. The bound beads were washed three times followed by the addition of 100 μl of Tween-PBS into each well. Fifty μl of sample was detected using the LUMINEX™ system (multiplexed flow cytometric assay). To confirm the specificity of IgG to a SCCA peptide, sample plasma was cultured in plates coated with a corresponding SCCA peptide, or with an irrelevant SCCA peptide. After the operation was repeated three times, the levels of the corresponding SCCA peptide-specific IgG in the resulting supernatant were determined by the LUMINEX™ system (multiplexed flow cytometric assay).
These 9 SCCA-derived peptides were screened based on their ability to be recognized by IgG in cancer patients. Peptide-specific IgG was measured by a multiplexed flow cytometric assay (LUMINEX™ (multiplexed flow cytometric assay)). The plasma samples were derived from 35 uterine cervical SCC patients, 10 breast adenocarcinoma patients, 10 pancreatic adenocarcinoma patients, 10 gastric adenocarcinoma, and 6 colon adenocarcinoma patients. The level of fluorescence intensity was judged to be significant when exceeded 100 at an 1/100 dilution.

EYLDAIKKF (SCCA 118-126 peptide) [SCCA-derived peptide, position 118-126]
Total: healthy donors with significant peptide-reactive IgG / donors tested (10 healthy donors, significant when fluorescence intensity exceeded 100 at 1/100 dilution): 2/10
Total: cancer patients with significant peptide-reactive IgG / patients tested (71 cancer patients, significant when fluorescence intensity exceeded 100 at 1/100 dilution): 7/71
Fluorescence intesity (serum of Breast Ca. patient #36, 1:100 dilution): 5
Fluorescence intesity (serum of Breast Ca. patient #37, 1:100 dilution): 23
Fluorescence intesity (serum of Breast Ca. patient #38, 1:100 dilution): 1
Fluorescence intesity (serum of Breast Ca. patient #39, 1:100 dilution): 1
Fluorescence intesity (serum of Breast Ca. patient #40, 1:100 dilution): 0
Fluorescence intesity (serum of Breast Ca. patient #41, 1:100 dilution): 123
Fluorescence intesity (serum of Breast Ca. patient #42, 1:100 dilution): 14
Fluorescence intesity (serum of Breast Ca. patient #43, 1:100 dilution): 7
Fluorescence intesity (serum of Breast Ca. patient #44, 1:100 dilution): 0
Fluorescence intesity (serum of Breast Ca. patient #45, 1:100 dilution): 18
Fluorescence intesity (serum of Colon Ca. patient #66, 1:100 dilution): 2
Fluorescence intesity (serum of Colon Ca. patient #67, 1:100 dilution): 0
Fluorescence intesity (serum of Colon Ca. patient #68, 1:100 dilution): 0
Fluorescence intesity (serum of Colon Ca. patient #69, 1:100 dilution): 0
Fluorescence intesity (serum of Colon Ca. patient #70, 1:100 dilution): 0
Fluorescence intesity (serum of Colon Ca. patient #71, 1:100 dilution): 17
Fluorescence intesity (serum of Gastric Ca. patient #56, 1:100 dilution): 0
Fluorescence intesity (serum of Gastric Ca. patient #57, 1:100 dilution): 0
Fluorescence intesity (serum of Gastric Ca. patient #58, 1:100 dilution): 0
Fluorescence intesity (serum of Gastric Ca. patient #59, 1:100 dilution): 21
Fluorescence intesity (serum of Gastric Ca. patient #60, 1:100 dilution): 0
Fluorescence intesity (serum of Gastric Ca. patient #61, 1:100 dilution): 5
Fluorescence intesity (serum of Gastric Ca. patient #62, 1:100 dilution): 0
Fluorescence intesity (serum of Gastric Ca. patient #63, 1:100 dilution): 0
Fluorescence intesity (serum of Gastric Ca. patient #64, 1:100 dilution): 2
Fluorescence intesity (serum of Gastric Ca. patient #65, 1:100 dilution): 0
Fluorescence intesity (serum of Healthy Donor #1, 1:100 dilution): 0
Fluorescence intesity (serum of Healthy Donor #2, 1:100 dilution): 47
Fluorescence intesity (serum of Healthy Donor #3, 1:100 dilution): 0
Fluorescence intesity (serum of Healthy Donor #4, 1:100 dilution): 0
Fluorescence intesity (serum of Healthy Donor #5, 1:100 dilution): 0
Fluorescence intesity (serum of Healthy Donor #6, 1:100 dilution): 0
Fluorescence intesity (serum of Healthy Donor #7, 1:100 dilution): 0
Fluorescence intesity (serum of Healthy Donor #8, 1:100 dilution): 324
Fluorescence intesity (serum of Healthy Donor #9, 1:100 dilution): 37
Fluorescence intesity (serum of Healthy Donor #10, 1:100 dilution): 0
Fluorescence intesity (serum of Pancreas Ca. patient #46, 1:100 dilution): 0
Fluorescence intesity (serum of Pancreas Ca. patient #47, 1:100 dilution): 0
Fluorescence intesity (serum of Pancreas Ca. patient #48, 1:100 dilution): 404
Fluorescence intesity (serum of Pancreas Ca. patient #49, 1:100 dilution): 0
Fluorescence intesity (serum of Pancreas Ca. patient #50, 1:100 dilution): 0
Fluorescence intesity (serum of Pancreas Ca. patient #51, 1:100 dilution): 0
Fluorescence intesity (serum of Pancreas Ca. patient #52, 1:100 dilution): 79
Fluorescence intesity (serum of Pancreas Ca. patient #53, 1:100 dilution): 0
Fluorescence intesity (serum of Pancreas Ca. patient #54, 1:100 dilution): 0
Fluorescence intesity (serum of Pancreas Ca. patient #55, 1:100 dilution): 0
Fluorescence intesity (serum of Uterine cervical Ca. patient #1, 1:100 dilution): 0
Fluorescence intesity (serum of Uterine cervical Ca. patient #2, 1:100 dilution): 0
Fluorescence intesity (serum of Uterine cervical Ca. patient #3, 1:100 dilution): 0
Fluorescence intesity (serum of Uterine cervical Ca. patient #4, 1:100 dilution): 0
Fluorescence intesity (serum of Uterine cervical Ca. patient #5, 1:100 dilution): 0
Fluorescence intesity (serum of Uterine cervical Ca. patient #6, 1:100 dilution): 507
Fluorescence intesity (serum of Uterine cervical Ca. patient #7, 1:100 dilution): 11
Fluorescence intesity (serum of Uterine cervical Ca. patient #8, 1:100 dilution): 24
Fluorescence intesity (serum of Uterine cervical Ca. patient #9, 1:100 dilution): 82
Fluorescence intesity (serum of Uterine cervical Ca. patient #10, 1:100 dilution): 13
Fluorescence intesity (serum of Uterine cervical Ca. patient #11, 1:100 dilution): 20
Fluorescence intesity (serum of Uterine cervical Ca. patient #12, 1:100 dilution): 37
Fluorescence intesity (serum of Uterine cervical Ca. patient #13, 1:100 dilution): 20
Fluorescence intesity (serum of Uterine cervical Ca. patient #14, 1:100 dilution): 16
Fluorescence intesity (serum of Uterine cervical Ca. patient #15, 1:100 dilution): 87
Fluorescence intesity (serum of Uterine cervical Ca. patient #16, 1:100 dilution): 179
Fluorescence intesity (serum of Uterine cervical Ca. patient #17, 1:100 dilution): 45
Fluorescence intesity (serum of Uterine cervical Ca. patient #18, 1:100 dilution): 42
Fluorescence intesity (serum of Uterine cervical Ca. patient #19, 1:100 dilution): 41
Fluorescence intesity (serum of Uterine cervical Ca. patient #20, 1:100 dilution): 100
Fluorescence intesity (serum of Uterine cervical Ca. patient #21, 1:100 dilution): 20
Fluorescence intesity (serum of Uterine cervical Ca. patient #22, 1:100 dilution): 20
Fluorescence intesity (serum of Uterine cervical Ca. patient #23, 1:100 dilution): 44
Fluorescence intesity (serum of Uterine cervical Ca. patient #24, 1:100 dilution): 1169
Fluorescence intesity (serum of Uterine cervical Ca. patient #25, 1:100 dilution): 15
Fluorescence intesity (serum of Uterine cervical Ca. patient #26, 1:100 dilution): 106
Fluorescence intesity (serum of Uterine cervical Ca. patient #27, 1:100 dilution): 28
Fluorescence intesity (serum of Uterine cervical Ca. patient #28, 1:100 dilution): 71
Fluorescence intesity (serum of Uterine cervical Ca. patient #29, 1:100 dilution): 13
Fluorescence intesity (serum of Uterine cervical Ca. patient #30, 1:100 dilution): 25
Fluorescence intesity (serum of Uterine cervical Ca. patient #31, 1:100 dilution): 101
Fluorescence intesity (serum of Uterine cervical Ca. patient #32, 1:100 dilution): 16
Fluorescence intesity (serum of Uterine cervical Ca. patient #33, 1:100 dilution): 114
Fluorescence intesity (serum of Uterine cervical Ca. patient #34, 1:100 dilution): 16
Fluorescence intesity (serum of Uterine cervical Ca. patient #35, 1:100 dilution): 19
